Patent publication US10159678B2, “Methods to decrease susceptibility to asthmatic bronchoconstriction” (Cornell University, priority 2012, dated 2018)

Columns and labels:
[1] = test system: isolated bronchial rings; assay: Myograph contractile response of bronchial rings isolated from myriocin-treated mice; assay type: in vivo; conditions: rings isolated from mice given myriocin (20 μg) intranasally; dose-dependent manner; FIG. 3C, 3D
Experimental: To directly assess bronchial reactivity bronchi were dissected from myriocin treated mice, Sptlc2^+/− or naïve mice, and mounted on hooks in a multiwire myograph system (DMT, Ann Arbor, Mich.) where they were kept at a resting tension of 200-250 mg in Krebs Henseleit (KH) solution at 37° C. (95% O2, 5% CO2). In addition, bronchial rings from naïve mice were bathed in myriocin (10 μM) for 3 h in the myograph before analysis. Mechanical forces were measured isometrically with force transducers interfaced to a data acquisition system (ADInstruments, Colorado Springs, Colo.) and analyzed with LabChart6Pro for Windows. Potassium (80 mM) was used to achieve maximum contraction and methacholine (0.01-10 μM) was added 30 min after washout of the K^+ solution. Contractile responses were measured as percentage of the response to K^+.

[2] = test system: human bronchial rings; assay: Myograph contractile response of human bronchial rings in myriocin-containing bath; conditions: 90 min in myriocin-containing bath solution (10 μM), then methacholine; FIG. 3E
Experimental: Human bronchial tissues were obtained from patients (n=15) undergoing surgery for lung cancer. The study was approved by the IRB at Weill Cornell Medical College. Within 30 min following resection, segments of bronchi with an inner diameter of 3-5 mm were taken from areas as far removed from the malignancy as possible. Bronchi were placed in oxygenated KH and following removal of adhering fat and connective tissues four to eight rings of the same bronchus were prepared. Each set of bronchial rings was suspended under an initial tension of 300-350 mg in KH solution containing 0.01% BSA, bubbled with 95% O2 and 5% CO2 at 37° C. and then washed every 15 min for 1 h. K^+ solution (80 mM) was then used to achieve maximum contraction and myriocin (10 μM) or solvent was added 30 min after washout of the K^+ solution. Methacholine (0.01-1 μM) was added after 90 minutes. Experiments were conducted on parallel groups of four rings at a time. Contractile responses were measured and analyzed as for the murine rings.

[3] = test system: Muc5ac; assay: Mucus production (PAS stain, Muc5ac mRNA) after myriocin; assay type: in vivo; conditions: myriocin-treated mice
Text: Lung sections were stained with periodic acid-Schiff stain (PAS) and analyzed by light microscopy. Expression of MUC5ac (Mm01276735) was quantified by TaqMan RealTime RT-PCR as described above.

[4] = test system: BALB/c mice; assay: Lung mechanics and airway reactivity to inhaled methacholine after intranasal myriocin; assay type: in vivo; conditions: 3 h after intranasal myriocin (2 or 20 μg)
Experimental: Animal studies described herein were conducted under protocols approved by the Institutional Animal Care and Use Committee of Weill Cornell Medical College. Female BALB/c mice, obtained from Taconic Farms (Tarrytown, N.Y.). Animals were housed under specific pathogen-free conditions and used at 6 to 8 weeks of age. Myriocin (Enzo Life Sciences, Plymouth Meeting, Pa.) was freshly prepared from a 10 mM stock solution to a 1 mM or 100 μM solution in 0.9% saline and 0.05% fatty acid free bovine serum albumin and 50 μl were administered intranasally. Control animals received the vehicle solution (1% DMSO in 0.9% saline, 0.5% BSA) or were naïve. […]
Mice were anaesthetized with pentobarbital (100 mg/kg; American Pharmaceutical Partners, Los Angeles, Calif.), tracheostomized and mechanically ventilated at a rate of 150 breaths/min, a tidal volume of 10 ml/kg and positive end-expiratory pressure of 2-3 cm H2O using a computer-controlled animal ventilator (Sireq, Montreal, Canada). […] Rn and G were also assessed following increasing doses of methacholine (3.125, 12.5 and 50 mg/ml).
Experiments were then performed to assess if administration of myriocin directly to the respiratory tract affects pulmonary function. […] Airway resistance (Rn) in response to increasing doses of inhaled methacholine was determined 3 h after myriocin administration. […]

With `CCCCCCC(=O)CCCCCC/C=C/C[C@@H](O)[C@H](O)[C@@](N)(CO)C(=O)O` [myriocin] the “contractile responses of bronchial rings to methacholine” value [1] was “increased”, the “contractile force of human bronchial rings” value [2] was “increased contractile force” and the “mucus-producing cells on PAS-stained lung sections” value [3] was “No differences”. For the same molecule, the “Expression of Muc5ac in the lungs” value ([3]; FIG. 4K) was “unchanged”, the “airway reactivity (airway resistance Rn in response to inhaled methacholine)” value ([4]; FIG. 3A) was “increased” and the “Baseline lung mechanical properties, such as static compliance” value ([4]; FIG. 3B) was “not altered”.
